# Results published in patent US20240408169A1 (priority 2023, published 2024).
# Where two headings read alike, the source gives them in different places. *1 amine or outer side, *2 acyl side, *3 side chain or, on linkers, in order; H or OH if unused. Where a SMILES comes first, the peptide text is derived from it. Bridges are numbered along the chain shown (N, C = ends). [ ]: non-standard residue; d: D form. The star is where a group is joined. X110 = CC(C)C(=O)N1[C@H]2CC[C@@H]1C=C(c1ccc(Cl)cc1C[C@@H](C(=O)[*:2])N(C)[*:1])C2; X53 = CN1[C@@H]2CC[C@H]1CN(c1ccc(-c3ccc(Cl)cc3C[C@@H](C(=O)[*:2])N(C)[*:1])cc1)C2; X92 = CN1CCN(C(=O)c2ccc(-c3ccc(Cl)cc3C[C@@H](C(=O)[*:2])N(C)[*:1])cc2)CC1; X62 = CN1CCC[C@H](c2ccc(-c3ccc(Cl)cc3C[C@@H](C(=O)[*:2])N(C)[*:1])cc2)C1; X75 = CC(C)C(=O)N1C2C=C(c3ccc(Cl)cc3C[C@@H](C(=O)[*:2])N(C)[*:1])CC1COC2; X58 = CC(C)C(=O)N1CC=C(c2ccc(Cl)cc2C[C@@H](C(=O)[*:2])N(C)[*:1])CC1; X82 = CN([C@@H](Cc1cc(Cl)ccc1-c1cnn(S(C)(=O)=O)c1)C(=O)[*:2])[*:1]; X87 = CN([C@@H](Cc1cc(F)ccc1-c1ccc(N2CCOCC2)cc1)C(=O)[*:2])[*:1]; X111 = CN([C@@H](Cc1cc(Cl)ccc1-c1nnc(C2CC2)o1)C(=O)[*:2])[*:1]; X35 = CN([C@@H](Cc1cc(Cl)ccc1-c1cnc2ccnn2c1)C(=O)[*:2])[*:1]; NMehhhLys(Me) = CN([C@@H](CCCCCCCN(C)[*:3])C(=O)[*:2])[*:1]; NMe3Pal(2-OiPr,5-Cl) = CN[C@@H](Cc1cc(Cl)cnc1OC(C)C)C(=O)O; NMe(hhhLys) = CN([C@@H](CCCCCCCN[*:3])C(=O)[*:2])[*:1]; NMe3Pal(2-OMe,5-Cl) = CN[C@@H](Cc1cc(Cl)cnc1OC)C(=O)O; Oxane2carbonyl(2R-CF3) = O=C([C@@]1(C(F)(F)F)CCCCO1)*; Cyclobutanecarbonyl(1-CF3) = O=C(C1(C(F)(F)F)CCC1)*; cBuCO(3,3-F2-1-CF3) = O=C(C1(C(F)(F)F)CC(F)(F)C1)*; Pro(trans-4-F) = O=C(O)[C@@H]1C[C@@H](F)CN1; Gly(cPr) = N[C@H](C(=O)O)C1CC1
# Assays:
# CyclinA2/CDK2 = target: T1, CyclinA2/CDK2 (Homo sapiens, UniProt P20248); assay: Fluorescence Polarization (FP) competitive binding assay, Cyclin A2/Cdk2;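 further: plates equilibrated two hours at room temperature before polarization reading, IC50 fitted from eight-concentration compound titration curves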
# T1 construct: purchased CRELUX Protein Services
# CyclinE1/CDK2 = target: T2, CyclinE1/CDK2 (Homo sapiens, UniProt P24864); assay: Fluorescence Polarization (FP) competitive binding assay, Cyclin E1/Cdk2;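 further: readings taken after two-hour equilibration at room temperature in HEPES buffer with NaCl, DTT, NP-40 and BSA, IC50 fitted from eight-concentration serial dilution series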
# T2 construct: purchased Eurofins, discovery 14-475
# OVCAR3 cells = assay: MTT proliferation assay, OVCAR3; format: cell-based; details: 5 days compound exposure, 1:3 serial dilution starting at 10 μM;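 further: compound given as an 8- or 10-point series, one day after plating, with exposure covering roughly 3-4 cell doublings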
# WI-38 cells = assay: MTT proliferation assay, WI-38; format: cell-based; details: 3 days compound exposure, 1:3 serial dilution starting at 10 μM;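 further: Eight- or ten-point dilution series, with exposure length chosen to span about three to four cell doublings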
# NCI-H1048 cells = assay: MTT proliferation assay, NCI-H1048; format: cell-based; details: 5 days compound exposure, 1:3 serial dilution starting at 10 μM;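 further: Dose-response in 96-well plates over 8 or 10 concentration points, with exposure spanning 3-4 cell doublings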
# CyclinB1/CDK1 = target: T3, CyclinB1/CDK1 (Homo sapiens, UniProt P14635); assay: Fluorescence Polarization (FP) competitive binding assay, Cyclin B1/Cdk1;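 further: fluorescence polarization read after equilibration at room temperature, with IC50 taken from serially diluted dose-response curves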
# T3 construct: purchased Eurofins, discovery 14-450
# [1] = 8 nM Cyclin A2/Cdk2, 2 nM FAM probe; average of 2-3 independent experiments; read-out: Cyclin A FP IC50
# [2] = 10 nM Cyclin E1/Cdk2, 2 nM FAM probe, average of 2-3 independent experiments, read-out: Cyclin E FP IC50
# [3] = 10 nM Cyclin B1/Cdk1, 2 nM FAM probe; average of 2-3 independent experiments; read-out: Cyclin B FP IC50
# [4] = read-out: Cyclin A FP IC50; 8 nM Cyclin A2/Cdk2, 2 nM FAM probe; average of 2-3 independent experiments
# [5] = read-out: Cyclin B FP IC50; 10 nM Cyclin B1/Cdk1, 2 nM FAM probe; average of 2-3 independent experiments
SMILES,IC50 (CyclinA2/CDK2; [1]) [nM],IC50 (CyclinE1/CDK2; [2]) [nM],GI50 (OVCAR3 cells) [nM],GI50 (WI-38 cells) [nM],GI50 (NCI-H1048 cells) [nM],IC50 (CyclinB1/CDK1; [3]) [nM],IC50 (CyclinA2/CDK2; [4]) [nM],IC50 (CyclinE1/CDK2) [nM],IC50 (CyclinB1/CDK1; [5]) [nM]
"CC(C)C[C@@H]1NC(=O)[C@@H](N(C)C(=O)[C@@H](NC(=O)[C@@H]2C[C@@H](F)CN2C(=O)C2(C(F)(F)F)CC(F)(F)C2)C2CC2)CCCCCCCN(C)C(=O)[C@H](Cc2cc(Cl)ccc2-c2ccc(N3C[C@H]4CC[C@@H](C3)N4C)cc2)N(C)C1=O [Example 362] ({cBuCO(3,3-F2-1-CF3)}-[Pro(trans-4-F)][Gly(cPr)][NMehhhLys(Me)]L[X53]; lactam 3-C)",20,600,10,1280,10,20,,,
CC(C)C[C@@H]1NC(=O)[C@@H](N(C)C(=O)[C@@H](NC(=O)[C@@H]2C[C@@H](F)CN2C(=O)[C@@]2(C(F)(F)F)CCCCO2)C2CC2)CCCCCCCN(C)C(=O)[C@H](Cc2cc(Cl)ccc2-c2cnn(S(C)(=O)=O)c2)N(C)C1=O [Example 299] ({Oxane2carbonyl(2R-CF3)}-[Pro(trans-4-F)][Gly(cPr)][NMehhhLys(Me)]L[X82]; lactam 3-C),20,130,10,14300,10,20,,,
CC(C)C[C@@H]1NC(=O)[C@@H](N(C)C(=O)[C@@H](NC(=O)[C@@H]2C[C@@H](F)CN2C(=O)C2(C(F)(F)F)CCC2)C2CC2)CC=CCCCCN(C)C(=O)[C@H](Cc2cc(F)ccc2-c2cnn(C)c2)N(C)C1=O [Example 40],50,240,50,15400,60,20,,,
"COc1ncc(Cl)cc1C[C@H]1C(=O)N(C)CCCCCCC[C@H](N(C)C(=O)[C@@H](NC(=O)[C@@H]2C[C@@H](F)CN2C(=O)[C@@]2(C(F)(F)F)CCCCO2)C2CC2)C(=O)N[C@@H](CC(C)C)C(=O)N1C [Example 223] ({Oxane2carbonyl(2R-CF3)}-[Pro(trans-4-F)][Gly(cPr)][NMehhhLys(Me)]L[NMe3Pal(2-OMe,5-Cl)]; lactam 3-C)",,,10,7760,10,,20,100,20
CC(C)C[C@@H]1NC(=O)[C@@H](N(C)C(=O)[C@@H](NC(=O)[C@@H]2C[C@@H](F)CN2C(=O)[C@@]2(C(F)(F)F)CCCCO2)C2CC2)C/C=C\CCCCN(C)C(=O)[C@H](Cc2cc(Cl)ccc2-c2cnn(C)c2)N(C)C1=O [Example 174],20,100,10,6980,10,20,,,
COCCn1cc(-c2ccc(Cl)cc2C[C@H]2C(=O)N(C)CCCCC=CC[C@H](N(C)C(=O)[C@@H](NC(=O)[C@@H]3C[C@@H](F)CN3C(=O)C3(C(F)(F)F)CC(F)(F)C3)C3CC3)C(=O)N[C@@H](CC(C)C)C(=O)N2C)cn1 [Example 44],30,270,40,6600,20,20,,,
"CC(C)C[C@@H]1NC(=O)[C@@H](N(C)C(=O)[C@@H](NC(=O)[C@@H]2C[C@@H](F)CN2C(=O)C2(C(F)(F)F)CC(F)(F)C2)C2CC2)CCCCCCCN(C)C(=O)[C@H](Cc2cc(F)ccc2-c2ccc(N3CCOCC3)cc2)N(C)C1=O [Example 337] ({cBuCO(3,3-F2-1-CF3)}-[Pro(trans-4-F)][Gly(cPr)][NMehhhLys(Me)]L[X87]; lactam 3-C)",20,190,10,18700,10,20,,,
CC(C)C[C@@H]1NC(=O)[C@@H](N(C)C(=O)[C@@H](NC(=O)[C@@H]2C[C@@H](F)CN2C(=O)C2(C(F)(F)F)CCC2)C2CC2)CC=CCCCCN(C)C(=O)[C@H](Cc2cc(Cl)ccc2-c2cnn(C)c2)N(C)C1=O [Example 34],20,210,110,13100,60,20,,,
"CC(C)C[C@@H]1NC(=O)[C@@H](N(C)C(=O)[C@@H](NC(=O)[C@@H]2C[C@@H](F)CN2C(=O)C2(C(F)(F)F)CCC2)C2CC2)CCCCCCCNC(=O)[C@H](Cc2cc(Cl)cnc2OC(C)C)N(C)C1=O [Example 138] ({Cyclobutanecarbonyl(1-CF3)}-[Pro(trans-4-F)][Gly(cPr)][NMe(hhhLys)]L[NMe3Pal(2-OiPr,5-Cl)]; lactam 3-C)",30,110,280,6670,200,20,,,
"CC(C)C[C@@H]1NC(=O)[C@@H](N(C)C(=O)[C@@H](NC(=O)[C@@H]2C[C@@H](F)CN2C(=O)C2(C(F)(F)F)CC(F)(F)C2)C2CC2)CCCCCCCN(C)C(=O)[C@H](Cc2cc(Cl)ccc2-c2ccc([C@H]3CCCN(C)C3)cc2)N(C)C1=O [Example 412] ({cBuCO(3,3-F2-1-CF3)}-[Pro(trans-4-F)][Gly(cPr)][NMehhhLys(Me)]L[X62]; lactam 3-C)",20,1390,10,1060,10,20,,,
"CC(C)C[C@@H]1NC(=O)[C@@H](N(C)C(=O)[C@@H](NC(=O)[C@@H]2C[C@@H](F)CN2C(=O)C2(C(F)(F)F)CC(F)(F)C2)C2CC2)CCCCCCCN(C)C(=O)[C@H](Cc2cc(Cl)ccc2-c2cnc3ccnn3c2)N(C)C1=O [Example 172] ({cBuCO(3,3-F2-1-CF3)}-[Pro(trans-4-F)][Gly(cPr)][NMehhhLys(Me)]L[X35]; lactam 3-C)",60,2430,60,13700,30,20,,,
"CC(C)C[C@@H]1NC(=O)[C@@H](N(C)C(=O)[C@@H](NC(=O)[C@@H]2C[C@@H](F)CN2C(=O)C2(C(F)(F)F)CC(F)(F)C2)C2CC2)CCCCCCCNC(=O)[C@H](Cc2cc(Cl)ccc2C2=CC3COCC(C2)N3C(=O)C(C)C)N(C)C1=O (stereo partly drawn) [Example 194] ({cBuCO(3,3-F2-1-CF3)}-[Pro(trans-4-F)][Gly(cPr)][NMe(hhhLys)]L[X75]; lactam 3-C)",20,540,10,5610,10,20,,,
"CC(C)C[C@@H]1NC(=O)[C@@H](N(C)C(=O)[C@@H](NC(=O)[C@@H]2C[C@@H](F)CN2C(=O)C2(C(F)(F)F)CC(F)(F)C2)C2CC2)CCCCCCCNC(=O)[C@H](Cc2cc(Cl)ccc2C2=C[C@H]3CC[C@@H](C2)N3C(=O)C(C)C)N(C)C1=O [Example 313] ({cBuCO(3,3-F2-1-CF3)}-[Pro(trans-4-F)][Gly(cPr)][NMe(hhhLys)]L[X110]; lactam 3-C)",20,640,10,36600,10,20,,,
"CC(C)C[C@@H]1NC(=O)[C@@H](N(C)C(=O)[C@@H](NC(=O)[C@@H]2C[C@@H](F)CN2C(=O)C2(C(F)(F)F)CC(F)(F)C2)C2CC2)CCCCCCCN(C)C(=O)[C@H](Cc2cc(Cl)ccc2-c2ccc(C(=O)N3CCN(C)CC3)cc2)N(C)C1=O [Example 390] ({cBuCO(3,3-F2-1-CF3)}-[Pro(trans-4-F)][Gly(cPr)][NMehhhLys(Me)]L[X92]; lactam 3-C)",20,870,20,9240,30,20,,,
"CC(C)C[C@@H]1NC(=O)[C@@H](N(C)C(=O)[C@@H](NC(=O)[C@@H]2C[C@@H](F)CN2C(=O)C2(C(F)(F)F)CC(F)(F)C2)C2CC2)CCCCCCCNC(=O)[C@H](Cc2cc(Cl)ccc2C2=CCN(C(=O)C(C)C)CC2)N(C)C1=O [Example 98] ({cBuCO(3,3-F2-1-CF3)}-[Pro(trans-4-F)][Gly(cPr)][NMe(hhhLys)]L[X58]; lactam 3-C)",20,1100,20,16400,20,20,,,
"CC(C)C[C@@H]1NC(=O)[C@@H](N(C)C(=O)[C@@H](NC(=O)[C@@H]2C[C@@H](F)CN2C(=O)C2(C(F)(F)F)CC(F)(F)C2)C2CC2)CCCCCCCN(C)C(=O)[C@H](Cc2cc(Cl)ccc2-c2nnc(C3CC3)o2)N(C)C1=O [Example 240] ({cBuCO(3,3-F2-1-CF3)}-[Pro(trans-4-F)][Gly(cPr)][NMehhhLys(Me)]L[X111]; lactam 3-C)",,,10,8730,10,,20,140,20
CC(C)C[C@@H]1NC(=O)[C@@H](N(C)C(=O)[C@@H](NC(=O)[C@@H]2C[C@@H](F)CN2C(=O)C2(C(F)(F)F)CC(F)(F)C2)C2CC2)CC=CCCCCNC(=O)[C@H](Cc2cc(Cl)ccc2C2=CCOCC2)N(C)C1=O [Example 17],90,4110,560,17900,240,20,,,
[2H]C([2H])([2H])n1cc(-c2ccc(Cl)cc2C[C@H]2C(=O)N(C)CCCCCCC[C@H](N(C)C(=O)[C@@H](NC(=O)[C@@H]3C[C@@H](F)CN3C(=O)C3(C(F)(F)F)CC(F)(F)C3)C3CC3)C(=O)N[C@@H](CC(C)C)C(=O)N2C)cn1 [Example 239],20,420,20,14300,20,20,,,
